Where a name gives a salt, the structure may show the parent alone.
Experiments:
HaCaT cells = test: Cell toxicity of high concentration of antibiotics, LIVE/DEAD stain; assay type: cell-based, human; details: 4.5 mg mL^−1 VAN, 48 hour incubation
Method: (§1) To evaluate the cell toxicity of the high concentration of antibiotics, HaCaT cells and HDFa cells were used. 2×10^4 HaCat cells and 2×10^3 HDFa cells were seeded in each well of a 96-well plate. After being cultured in an incubator under 37° C. and 5% CO2 for 24 hours, 4.5 mg mL^−1 VAN and 20 mg mL^−1 DAP were added to the culture media, respectively. Both HaCat cells and HDFa cells were treated by VAN for two days, and exposed to DAP for one day, respectively. The cell toxicity of the two cells at the end time points were evaluated by LIVE/DEAD stain and visualized by a confocal laser scanning microscope (CLSM, LSM 710, Zeiss, Germany).

HDFa cells = test: as above; assay type: cell-based, human; details: 4.5 mg mL^−1 VAN, 48 hour incubation
Method: as §1

S. aureus biofilms = details: cited from earlier work
[1] = test system: MRSA biofilm-infected porcine skin wound; test: Ex vivo anti-biofilm efficacy, standard plate counting assay; assay type: cell-based, Methicillin-resistant S. aureus (MRSA) USA300
Method: Same as previous tests, an ex vivo MRSA biofilm-infected porcine skin wound model was used here. First the biofilm treatment efficacy was tested when different current intensities were used with a fixed VAN loading concentration at 1 mg mL^−1. After a single treatment for 1 hour, wound tissues were incubated for 24 hours in a 37° C. incubator to allow VAN to take effect. After incubation, tissue samples were collected and evaluated for bacterial count using the standard plate counting assay for MRSA colony. […] Treating the biofilm with no current for 1 hour (only VAN diffusion) or a low current of 0.5 mA cm^−2 for 1 hour induced a minimal MRSA count reduction to 10^9.8 CFU g^−1 and 10^9.6 CFU g^−1, respectively. When 19 mA cm^−2, 38 mA cm^−2, and 75 mA cm^−2 were applied, MRSA count was further reduced to 10^8.6 CFU g^−1, 10^8.3 CFU g^−1 and 10^7.6 CFU g^−1, respectively (see FIGS. 5A and 5F). […] Because 75 mA cm^−2 had better anti-biofilm efficacy than other conditions, it was selected for the following tests.
The fetal pig skin samples (approximately 30×30 mm) were immersed in 10% (v/v) bleach for 5 minutes after hair removal. Then, skin samples were sterilized in 70% ethanol for 30 minutes. The surface of skin sample was further cleaned by 10% povidone-iodine and 70% isopropanol to prevent contamination. A 6-mm disposable biopsy punch was used to create an excisional wound. Samples were put into sterile 10-cm petri-dishes filled with sterile PBS (6 mL). The wound was then inoculated with 1×10^8 CFU mL^−1 MRSA bacteria solution (20 μL). The bacteria were allowed to grow in a 37° C. Heratherm™ compact microbiological incubator (ThermoFischer Scientific™, Waltham, Mass., USA) for 48 hours to form mature biofilms.
The HIC-based biofilm treatment system 100 embodiment shown in FIG. 18 was used to test electrical debridement treatment of high-intensity current on ex vivo MRSA biofilm infected skin wounds. The MRSA biofilm infected skin wound was sandwiched between anode and cathode HIC-based devices (i.e., the working device 104 and the counter device 106). To evaluate the anti-biofilm effect of high current intensity only, PBS (5 mL) was filled in both drug/buffer chamber 114 and PBS chamber 122 and then 0.5 mA cm^−2, 19 mA cm^−2, 38 mA cm^−2, and 75 mA cm^−2 was applied for 1 hour, respectively. The device/skin wound contact area was 0.502 cm^2. Skin samples were collected by 8-mm biopsy punch immediately after test or at 24 hours after testing. To evaluate the biofilm thickness before and after different treatments, samples were embedded in tissue freezing medium (OCT) and sectioned at 8 μm. After being imaged in microscope, the thickness of biofilms after different treatments were measured using ImageJ software. To evaluate the colony-forming unit (CFU) counts per gram of MRSA from infected skin wounds, samples were homogenized in PBS (10 mL) and diluted with PBS, and then transferred to standard plate counting assay. The bactericidal efficacy was calculated as follows:
The HIC-based biofilm treatment system 100 embodiment shown in FIG. 18 was used to evaluate combined biofilm treatment efficacy of electrical debridement and VAN delivery. To evaluate the anti-biofilm treatment efficacy of current intensity, 0 mA cm^−2 (passive diffusion) to 75 mA cm^−2 was applied on the HIC-based biofilm treatment system 100 with 1 mg mL^−1 VAN loaded in HIC-based working device 104, respectively. […] To further enhance the anti-biofilm efficacy of electrical debridement and high concentration delivery of VAN, two treatments were applied, named protocol #1 and protocol #2. Protocol #1 applied two treatments (treatment: 75 mA cm^−2 for 1 hour, 1 mg mL^−1 VAN loaded in HIC-based working device 104) separated by 6 hours. Protocol #2 applied two treatments (treatment same as Protocol #1) separated by 24 hours. CFU was counted 24 hours after last treatment using the standard spread counting assay. The bactericidal efficacy was calculated accordingly. […]

C. difficle = details: cited from earlier work
[2] = test system: S. aureus persister cells; details: even at 100×MIC; cited from earlier work
[3] = 75 mA cm^−2 1 hour, 1 mg mL^−1 VAN, 24 hours after

## CN[C@H](CC(C)C)C(=O)N[C@H]1C(=O)N[C@@H](CC(N)=O)C(=O)N[C@H]2C(=O)N[C@H]3C(=O)N[C@H](C(=O)N[C@H](C(=O)O)c4cc(O)cc(O)c4-c4cc3ccc4O)[C@H](O)c3ccc(c(Cl)c3)Oc3cc2cc(c3O[C@@H]2O[C@H](CO)[C@@H](O)[C@H](O)[C@H]2O[C@H]2C[C@](C)(N)[C@H](O)[C@H](C)O2)Oc2ccc(cc2Cl)[C@H]1O [VAN, Vancomycin hydrochloride]
HaCaT cells
  viability of skin cells: not affected
HDFa cells
  viability of skin cells: not affected
S. aureus biofilms; 2 mA (0.17 mA cm^−2) for 24 hours with 32 μg mL^−1 vancomycin
  biofilm bacterial density reduction: 1 log10 scale
S. aureus biofilms; vancomycin alone
  antibacterial effect: no antibacterial effect
[1]; 0.5 mA cm^−2 1 hour, 1 mg mL^−1 VAN, 24 hours after
  bactericidal efficacy: 4.4±2.76 times
[1]; 19 mA cm^−2 1 hour, 1 mg mL^−1 VAN, 24 hours after
  bactericidal efficacy: 57.8±50.30 times
[1]; 38 mA cm^−2 1 hour, 1 mg mL^−1 VAN, 24 hours after
  bactericidal efficacy: 81.4±13.34 times
[1]; [3]
  bactericidal efficacy: 452.8±115.32 times
  bactericidal rate: 99.8%
[1]; 75 mA cm^−2 1 hour, 3 mg mL^−1 VAN loading
  bactericidal efficacy: 112.6±13.58 times
[1]; 75 mA cm^−2 1 hour, 5 mg mL^−1 VAN loading
  bactericidal efficacy: 5.1±3.80 times
[1]; 75 mA cm^−2 1 hour, 10 mg mL^−1 VAN loading
  bactericidal efficacy: 9.7±2.92 times
[1]; passive diffusion 1 hour, 1 mg mL^−1 VAN, 24 hours after
  bactericidal efficacy: 2.7±2.06 times
[1]; single 1 hour treatment, 75 mA cm^−2, 1 mg mL^−1 VAN
  MRSA bacterial count reduction in wound tissue: 2.6 login scales
C. difficle
  concentration at which antibacterial activity starts to decrease (paradoxical effect): 64 ×MIC
[2]
  killing of S. aureus persister cells: not capable of killing

From US20240050735A1, “SYSTEMS AND METHODS FOR TREATING AND INHIBITING WOUND INFECTIONS” (priority 2020, published 2024)
